The values that follow come from US20200207782A1, “CHEMICALLY ACTIVATED WATER-SOLUBLE PRODRUG” (SUMITOMO DAINIPPON PHARMA CO., LTD, priority 2017, published 2020).

Structures are written as SMILES. Values after ≈ are worked out from the molar mass of the structure shown. Where a name gives a salt, the structure may show the parent alone.

A short description of series [1]: physchem. The note with it: thermodynamic from solid; for solubility at 24 h: pH 2, aqueous buffer.
Experimental: The solubility of the water-soluble prodrugs described in the Examples and the Reference Examples was measured. […] The filtrate was measured by HPLC.
Series [2] is described as follows: Solution stability test (residual ratio and generation of active form in buffers of pH 2.0 to 9.0). Set-up: Rate of generation of active form after 24 hours in buffer with pH of 7.4: tested at 25 µM. The class given is physicochemical. The note with it: for Residual ratio / Rate of generation of active form after 24 hours in buffer with pH of 7.4: 25° C.; for Residual ratio: 25 umol/L; for Degradation behaviour in buffers (in words): pH 2.0 to 9.0; for Rate of generation of active form after 24 hours in buffer with pH of 7.4: pH 7.4 buffer. The protocol: The test compounds were incubated at 25° C. at a concentration of 25 umol/L in a buffer prepared to have a pH of 2.0, 3.0, 5.0, 7.4, and 9.0. The compounds were measured by HPLC after 0, 3, 6, 9, 12, and 24 hours.
The buffers used at each pH are the following. • pH 2.0: 50 mmol/L glycine buffer • pH 3.0: 50 mmol/L citrate buffer • pH 5.0: 50 mmol/L citrate buffer • pH 7.4: 50 mmol/L phosphate buffer • pH 9.0: 50 mmol/L glycine buffer
The measurement conditions for HPLC are the following.
The yield of the Example and Reference Example compounds and active forms is calculated with each of the peak area of the Example and Reference Example compounds at 0 minutes and the peak area upon dissolution of the corresponding active form at 100 umol/L as 100%. The yield is denoted in terms of %

The nature of series [3]: Evaluation of conversion rate to active form in CD1 mouse plasma. The class given is in vitro ADME. The note with it: CD1 mouse plasma, incubation time 120 minutes. The protocol:
(§1) The ratio of decrease of a test compound and the conversion ratio to a corresponding active form (2-acetylthieno[3,2-f][1]benzofuran-4,8-dione) in human plasma and CD1 mouse plasma were measured for Example 1.
(§2) The test compounds were incubated at 37° C. at a concentration of 10 umol/L in human plasma (cat. no. 12250210, Cosmo Bio) and CD1 mouse plasma (cat. no. AP3054, KAC) and retrieved for a given time (0, 5, 10, 30, 60, and 120 minutes) and deproteinized, then analyzed by LC-MS. Acetonitrile comprising each of 10% quantity of 1 mol/L hydrochloric acid, 1% quantity of 46% citric acid, and phenytoin as an internal standard was used for deproteinization.
(§3) LC-MS measurement conditions were the following.
(§4) The yield of the Examples compounds and active form 2-acetylthieno[3,2-f][1]benzofuran-4,8-dione is calculated with each of the peak area of the Example compounds at 0 minutes and the peak area upon dissolution of 2-acetylthieno[3,2-f][1]benzofuran-4,8-dione at 100 umol/L as 100%. The yield is denoted in terms of %.
(§5) In the same manner as Example 1, the conversion ratio to an active form was measured for each of the various test compounds in human plasma and CD1 mouse plasma, with incubation time as 120 minutes. It was confirmed that the series of compounds of the invention was converted to an active form with a small interspecies difference in human plasma and CD1 mouse plasma.
(§6) The yield of the active forms is calculated with the each peak area upon dissolution of the generated active form at 100 umol/L as 100%. The yield is denoted in terms of %.

The nature of series [4]: Evaluation of conversion rate to active form in human plasma. The following applies: Human plasma, incubation time 120 minutes. In kind it is in vitro ADME. The protocol: as §1, §2, §3, §4, §5, §6

In turn, `CC(=O)c1cc2c(o1)C(=O)c1cccc(O)c1C2=O` [2-acetyl-5-hydroxynaphtho[2,3-b]furan-4,9-dione, reference compound] displayed a solubility in series [1] (50 mmol/L glycine buffer, pH 3, aqueous buffer) of 1 µg/mL (≈ 3.9 µM).

Molecule `CC1=CC(=O)c2ccccc2C1=O` [2-methylnaphthalen-1,4-dione, reference compound] returned a solubility at 24 h in series [1] (50 mmol/L glycine buffer) of 97 µg/mL (≈ 563 µM).

In the case of `O=C1C(=O)C(c2ccccc2)=C2OCOC2=C1c1ccccc1` [4,7-diphenyl-1,3-benzodioxol-5,6-dione, reference compound], the solubility at 24 h in series [1] (50 mmol/L glycine buffer) worked out at 0.3 µg/mL (≈ 0.986 µM).

In the case of `Cc1cc(OC(=O)NCCNCC(=O)O)c2ccccc2c1OC(=O)NCCNCC(=O)O` [Example 2, 2,2′-[(2-Methylnaphthalene-1,4-diyl)bis(oxycarbonyliminoethane-2,1-diylimino)]diacetic acid dihydrochloride], in series [1], the solubility at 24 h was over 10000 µg/mL. Moreover, the Residual ratio in series [2] (pH2.0 buffer, 0 hr) came to 100%; in series [2] (pH2.0 buffer, 3 hr), 100%; in series [2] (pH2.0 buffer, 6 hr), 99.8%; in series [2] (pH2.0 buffer, 9 hr) it was 99.7%; in series [2] (pH2.0 buffer, 12 hr), 102%; in series [2] (pH2.0 buffer, 24 hr), 100%. Also, the Residual ratio was 101% in series [2] (pH3.0 buffer, 0 hr); 101% in series [2] (pH3.0 buffer, 3 hr); 101% in series [2] (pH3.0 buffer, 6 hr); 100% in series [2] (pH3.0 buffer, 9 hr); 100% in series [2] (pH3.0 buffer, 12 hr); 101% in series [2] (pH3.0 buffer, 24 hr). Also, the Residual ratio came out at 101% in series [2] (pH5.0 buffer, 0 hr); 101% in series [2] (pH5.0 buffer, 3 hr); 102% in series [2] (pH5.0 buffer, 6 hr); 102% in series [2] (pH5.0 buffer, 9 hr); 100% in series [2] (pH5.0 buffer, 12 hr); 102% in series [2] (pH5.0 buffer, 24 hr). Besides, the Residual ratio worked out at 102% in series [2] (pH7.4 buffer, 0 hr); 50.7% in series [2] (pH7.4 buffer, 3 hr); 32.0% in series [2] (pH7.4 buffer, 6 hr); 16.2% in series [2] (pH7.4 buffer, 9 hr); 0% in series [2] (pH7.4 buffer, 12 hr, dihydrochloride); 0.0% in series [2] (pH7.4 buffer, 24 hr). The Residual ratio in series [2] (pH9.0 buffer, 0 hr) is 44.5%; in series [2] (pH9.0 buffer, 3 hr, dihydrochloride), 0%; in series [2] (pH9.0 buffer, 6 hr), 0.0%; in series [2] (pH9.0 buffer, 9 hr), 0.0%; in series [2] (pH9.0 buffer, 12 hr) it was 0.0%; in series [2] (pH9.0 buffer, 24 hr), 0.0%. Also, in series [2], the “Degradation behaviour in buffers (in words)” value (“Degradation behaviour” below) was “pH dependent and chemical degradation progressed”. Further, the “Rate of generation of active form after 24 hours in buffer with pH of 7.4” value (shortened to “Rate of generation of active form”) in series [2] amounted to 7%. For the same molecule, the “Stability in solution (in words)” value in series [2] (pH of 2.0, 25° C.) is listed as “very stable”; in series [2] (pH of 3.0, 25° C.) it was “very stable”; in series [2] (pH of 5.0, 25° C.) it was “very stable”.

`CC1(C)CCc2c(OC(=O)NCCNCC(=O)O)c(OC(=O)NCCNCC(=O)O)c3ccccc3c2O1` [Example 4, 2,2′-[(2,2-Dimethyl-3,4-dihydro-2H-benzo[H]chromene-5,6-diyl)bis(oxycarbonyliminoethane-2,1-diylimino)]diacetic acid dihydrochloride]: the solubility at 24 h in series [1] is over 10000 µg/mL. The “Degradation behaviour” value in series [2] was “pH dependent and chemical degradation progressed”. For the same molecule, the “Stability in solution (in words)” value in series [2] (pH of 2.0, 25° C.) is recorded as “sufficient stability”; in series [2] (pH of 3.0, 25° C.), “sufficient stability”.

Consider `CN1CC[C@H](c2c(O)cc(OC(=O)N(C)CCN)c3c(=O)cc(-c4ccccc4Cl)oc23)[C@H](O)C1` [Example 9, 2-(2-chlorophenyl)-7-hydroxy-8-[(3S,4R)-3-hydroxy-1-methylpiperidin-4-yl]-4-oxo-4H-chromen-5-yl (2-aminoethyl)methylcarbamate ditrifluoroacetate], for which, in series [2], the “Degradation behaviour” value was “pH dependent and chemical degradation progressed”. Besides, in series [2], the “Rate of generation of active form” value turned out to be 23%. In addition, the “Stability in solution (in words)” value in series [2] (pH of 2.0, 25° C.) is reported as “stable”; in series [2] (pH of 3.0, 25° C.), “stable”; in series [2] (pH of 5.0, 25° C.), “stable”.

For the molecule `CNCCN(C)C(=O)Oc1cc(O)c2c(=O)cc(-c3ccccc3Cl)oc2c1[C@H]1CCN(C)C[C@H]1O` [Example 10, 2-(2-Chlorophenyl)-5-hydroxy-8-[(3S,4R)-3-hydroxy-1-methylpiperidin-4-yl]-4-oxo-4H-chromen-7-yl methyl[2-(methylamino)ethyl]carbamate ditrifluoroacetate], in series [2], the “Degradation behaviour” value was “pH dependent and chemical degradation progressed”; the “Rate of generation of active form” value amounted to 96%. Moreover, the “Stability in solution (in words)” value in series [2] (pH of 2.0, 25° C.) is “sufficient stability”. In series [2] (pH of 3.0, 25° C.), the “Stability in solution (in words)” value is on record as “sufficient stability”.

For the molecule `CNCCN(C)C(=O)Oc1cc(O)c([C@H]2CCN(C)C[C@H]2O)c2oc(-c3ccccc3Cl)cc(=O)c12` [Example 11, 2-(2-Chlorophenyl)-7-hydroxy-8-[(3S,4R)-3-hydroxy-1-methylpiperidin-4-yl]-4-oxo-4H-chromen-5-yl methyl[2-(methylamino)ethyl]carbamate ditrifluoroacetate], the “Degradation behaviour” value in series [2] is “pH dependent and chemical degradation progressed”. The “Stability in solution (in words)” value in series [2] (pH of 2.0, 25° C.) is reported as “stable”; in series [2] (pH of 3.0, 25° C.) it was “stable”; in series [2] (pH of 5.0, 25° C.), “stable”.

For the molecule `COC(=O)[C@H](CCNC(=O)Oc1c(C)c(CCCCCCCCCCOC(=O)OC(C)(C)C)c(OC(=O)NCC[C@H](NC(=O)OC(C)(C)C)C(=O)OC)c(OC)c1OC)NC(=O)OC(C)(C)C` [Reference Example 11, Dimethyl (2S,2′S)-4,4′-[(2-{10-[(tert-butoxycarbonyl)oxy]decayl}-5,6-dimethoxy-3-methylbenzene-1,4-diyl)bis(oxycarbonylimino)]bis{2-[(tert-butoxycarbonyl)amino]butanoate}], the “Conversion ratio to an active form (Measurement value %)” value in series [3] and in series [4] was 100% throughout. Moreover, in series [2], the “Rate of generation of active form” value stood at 91%.
